Assay results: US5998521A, “Aqueous fluoropolymer compositions and method of preparing the same” (3M Innovative Properties Company, priority 1996, dated 1999)

Key:
[1] = Thermogravimetric analysis of neat perfluorocarboxylate salts; type: physicochemical; settings: neat salt, nitrogen, 10° C./min
Description: Thermal degradation measurements were made on a series of neat perfluorocarboxylate salts, including several α-branched open chain structures (Examples N2-N9), a primarily linear open chain structure (Example N10-Fluorad™ FC-143 Fluorochemical Surfactant, commercially available from 3M Company, St. Paul, Minn.), and a closed chain (i.e., cyclic) structure (Example N11--made by the electrochemical fluorination of benzoic acid and hydrolysis in the presence of KOH, as described in U.S. Pat. No. 2,567,011 (Diesslin et al.)).
The perfluorocarboxylate salts were tested using a Perkin-Elmer TGA 7 thermogravimetric analysis apparatus and a salt sample size of approximately 5 mg, a heating rate of 10° C./min, and a nitrogen gas flow rate of 40-45 mL/min. Using the TGA 7 software, the following temperatures were recorded: (1) the onset temperature of decomposition, (2) the temperature at which 50% of the sample weight was lost, and (3) the temperature at which 90% of the sample weight was lost.

[2] = Bacterial sludge contact test
Experimental: (§1) The environmental stability of C6 F13 CF(CF3)COO^- NH4^+ was investigated under ambient conditions using a bacterial sludge contact test. In this test, bacterial sludge was obtained from the municipal waste treatment plant at Pig's Eye, Minn., the sludge was centrifuged to collect the water-insoluble high density solids, and was reconstituted in water to a standard level of about 2000 ppm of total suspended solids. A 5 mL aliquot of the 2000 ppm sludge in water was placed in each of several 20 mL vials, and enough of the carboxylate salt was added to each vial to achieve a concentration of about 496 ppm (1 millimolar). Each vial was tightly capped with a septum cap and was allowed to stand at room temperature. At intervals, the concentrations of perfluoroolefin and perfluoromonohydride gases in each headspace were measured by removing a gas sample from the space over the liquid, using a Hewlitt Packard Gas Chromatograph with a headspace sampling accessory. The peak areas determined from each gas sample were compared to a standard series made by placing increasing concentrations of a defined mixture of perfluoroolefin and perfluoromonohydride in water in the same types of vials, and subjecting the headspaces in the vials to the same analytical procedure. Results, given below, state the complete conversion relative to theoretical percent of the amount of perfluoroolefin/perfluoromonohydride mixture formed relative to that expected from complete conversion of the salt to volatile fluorocarbons. A control experiment using water with no sludge was also run at the 28 day test point.

bacterial sludge = experiment: Bacterial sludge contact test; settings: 28 days, ambient conditions
Experimental: as §1

SMILES: O=C(O)C(F)(C(F)(F)F)C(F)(F)C(F)(F)C(F)(F)C(F)(F)C(F)(F)C(F)(F)F (stereo not shown) [Example M16, C6 F13 CF(CF3)COO^- H4 N^+]
- Temperature for: 50% loss [1]: 179 °C
- Temperature for: 90% loss [1]: 193 °C
- Temperature for: Onset [1]: 165 °C
- percent perfluoroolefin/perfluoromonohydride formed at 672 h, 1000 µM ([2]; Day 28, no sludge): 32%
- percent perfluoroolefin/perfluoromonohydride formed at 24 h, 1000 µM ([2]; bacterial sludge, Day 1, with sludge): 4%
- percent perfluoroolefin/perfluoromonohydride formed at 96 h, 1000 µM ([2]; bacterial sludge, Day 4, with sludge): 13%
- percent perfluoroolefin/perfluoromonohydride formed at 168 h, 1000 µM ([2]; bacterial sludge, Day 7, with sludge): 23%
- percent perfluoroolefin/perfluoromonohydride formed at 336 h, 1000 µM ([2]; bacterial sludge, Day 14, with sludge): 44%
- percent perfluoroolefin/perfluoromonohydride formed at 672 h, 1000 µM ([2]; bacterial sludge, Day 28, with sludge): 70%
- effect of sludge on amount of perfluoroolefin/perfluoromonohydride (bacterial sludge): more than doubled
